Assay results: patent US12692232B2, “Indole carboxamide compound, preparation therefor and use thereof” (NANJING RUISHUNING MEDICAL TECHNOLOGY CO., LTD., priority 2021, dated 2026)

System: mouse model of focal segmental glomerulosclerosis
Experiment: Mouse model of focal segmental glomerulosclerosis (adriamycin)
Type: in vivo
Conditions: for serum urea nitrogen level: model 16.08±0.23; for urine protein level: model 547.0±106.3; for glomerular lesions, renal tissue pathology (H&E, PAS, Sirius red stain): FIG. 1; for glomerular lesions, renal tissue pathology (H&E, PAS, Sirius red stain) / body weight compared with the FSGS group: control compound 25 mg/kg, irbesartan 50 mg/kg; for body weight compared with the FSGS group: gavage daily 6 weeks, compound 1-1 10, 25, 50 mg/kg
Method: The method was as follows:
Each mouse in the model group, the treatment groups and the positive control group was injected once into the tail vein with adriamycin at a dose of 8 mg/kg, and each mouse in the control group was injected once into the tail vein with saline at the same dose. The mice in the control group and model group were administered equal amount of saline by gavage for 6 weeks, and the mice in other group were administered corresponding compound in doses by gavage at a fixed time each day for 6 weeks after modelling with adriamycin. The body weights were recorded weekly and urine samples were collected.
Collection of urine samples: animals were placed in separate metabolic cages by group on days 0, 7, 14, 21, 28, 35, and 42 after modelling, with free access to water and no access to food, and urine samples were collected from each group of mice.
Determination of urine protein level using Coomassie brilliant blue (CBB) method: urine protein level was determined by urine protein quantitative test kit (Nanjing Jiancheng Bioengineering Institute). CBB working solution was prepared according to the kit instructions. 0.05 mL of each urine sample was mixed with 3 mL of CBB working solution, the mixture was allowed to stand for 5 min, and the absorbance value of each sample was determined at 595 nm. The urine protein levels samples of each group was calculated according to the protein standardization formula: urine protein level (mg/L)=(measured OD−blank OD)/(standard OD−blank OD)×563 mg/L.
Collection of serum samples: orbital blood from each mouse was collected in an EP tube, placed at 37° C. for 20 minutes, and centrifuged to obtain an upper layer of serum.
Collection of plasma samples: orbital blood from each mouse was collected in an anticoagulation tube, mixed well and stored at 4° C. for later use.
Determination of urea nitrogen level in plasma by diacetyl monoxime method: urea nitrogen level was determined by using blood urea nitrogen (BUN) test kit (Nanjing Jiancheng Bioengineering Institute). According to the kit instructions, 0.05 mL of anticoagulated plasma sample was mixed with 1 mL of oxime solution and 1 mL of acid working solution, and the mixtures were placed in a boiling water bath for 15 minutes. A UV-visible spectrophotometer was used to determine the absorbance values of each tube at a wavelength of 520 nm. Urea nitrogen levels in plasma samples of each group were calculated according to the formula: Urea nitrogen level (mmol/L)=(measured OD value−blank OD value)/(standard OD value−blank OD value)×10 mmol/L.
Collection of kidney tissue samples: kidneys were taken from mice after anesthesia, cut horizontally, and the upper part of the kidneys was embedded in OCT embedding box, sliced with frozen slicer and stored at −20° C.
H&E staining was used to assess pathological glomerular changes, and the procedure was as follows: frozen sections were fixed with 95% ethanol for 2 minutes, hydrated with distilled water, stained with hematoxylin for 3 minutes, washed with distilled water for 3 minutes, differentiated using 1% hydrochloric acid in ethanol for 10 seconds, washed with distilled water for 30 seconds, returned to blue in running water for 5 minutes, washed in distilled water for 30 seconds, stained with eosin for 30 seconds, washed with 75% and 85% ethanol for 20 seconds each, dehydrated rapidly with 95% ethanol for 1 minute, dehydrated with anhydrous ethanol, cleared to transparency in xylene (1 minute×3), and finally sealed with neutral balsam and photographed with a biomicroscope.

Cn1c(C(=O)NCCC(=O)O)cc2ccccc21 [3-[(1-methyl-1H-indole-2-carbonyl)amino]propionic acid, reference compound]
serum urea nitrogen level reduced compared with the model group (25 mg/kg gavage, 6 weeks): 20.3% | urine protein level reduced compared with the model group (25 mg/kg gavage, 6 weeks): 22.6% | serum urea nitrogen level (25 mg/kg gavage, 6 weeks): 12.82 ± 0.46 mmol/L | urine protein level (25 mg/kg gavage, 6 weeks): 423 ± 64.7 mg/L | glomerular lesions, renal tissue pathology (H&E, PAS, Sirius red stain): glomerular mesangial matrix hyperplasia is reduced compared with the model group, but increased compared with the treatment groups of compound 1-1 | body weight compared with the FSGS group: increased body weights

CC(=O)OCCCNC(=O)c1c(C=O)c2ccccc2n1C [compound 1-1, propyl 3-[(3-formyl-1-methyl-1H-indole-2-carbonyl)amino]acetate]
serum urea nitrogen level vs model group (10 mg/kg gavage, 6 weeks): significantly reduced | urine protein level vs model group (10 mg/kg gavage, 6 weeks): significantly reduced | serum urea nitrogen level reduced compared with the model group (25 mg/kg gavage, 6 weeks): 27.2% | urine protein level reduced compared with the model group (25 mg/kg gavage, 6 weeks): 28.6% | serum urea nitrogen level (25 mg/kg gavage, 6 weeks): 11.7 ± 0.33 mmol/L | urine protein level (25 mg/kg gavage, 6 weeks): 390 ± 74.6 mg/L | serum urea nitrogen level reduced compared with the model group (50 mg/kg gavage, 6 weeks): 29.8% | urine protein level reduced compared with the model group (50 mg/kg gavage, 6 weeks): 42.7% | serum urea nitrogen level (50 mg/kg gavage, 6 weeks): 11.29 ± 0.40 mmol/L | urine protein level (50 mg/kg gavage, 6 weeks): 313 ± 57.6 mg/L | glomerular lesions, renal tissue pathology (H&E, PAS, Sirius red stain): significantly ameliorates glomerular lesions caused by FSGS | body weight compared with the FSGS group: increased body weights
